Measurements taken from publication PMC5785997, “2-Phenylquinazolinones as dual-activity tankyrase-kinase inhibitors” (Scientific Reports, 2018).

Columns and labels:
human CK2α-1 = target: T1, human CK2α-1 (Homo sapiens, UniProt P68400); assay: ADP-Glo kinase assay, CK2; format: biochemical; settings: read-out: CK2 (% Inhib.); for inhibition at 1 µM: 1 µM compound, Table S3; for inhibition at 10 µM: 10 µM compound, Table S4
T1 construct: purchased Promega V4,482
Protocol: The kinase functional assays were performed using a combination of kinase and 1.5 μM peptide substrate in the presence of ATP. The reaction mixture was analyzed on the Caliper LabChip 3,000 (Caliper, Hopkinton, MA) by the electrophoretic mobility shift of the fluorescent substrate and phosphorylated product. For the inhibition of human CK2α-1, the experiments were carried out with ADP-Glo kinase Assay Kit (Promega V9,101). Assays are described in detail in the Supplementary Methods and Table S6. […]
Dose-response curves were generated to determine the concentration required to inhibit 50% of kinase activity (IC50). Staurosporine (Invitrogen BP2,451) was included as a positive control of each enzymatic assay. The profiling of the kinases was done at 1 and at 10 μM of the compound.
For the inhibition of human CK2α-1, the experiments were carried out in a white 384-microplate low flange (Corning 3,572) with ADP-Glo kinase Assay Kit (Promega V9101) and CK2α-1 Kinase Enzyme System (Promega V4,482). The test compounds and standard staurosporine (Invitrogen BP2451), 25 ng/well CK2α-1 kinase and 50 µM ATP were added in a final volume of 10 µl/well using reaction buffer supplied by kit as assay buffer. The reaction mixture was incubated in gentle shaking for 60 minutes at room temperature. After the incubation 10 µl of ADP-Glo reagent was added and incubated in gentle shaking for 40 minutes at room temperature. Finally 20 µl of Kinase Detection Reagent was added and the plate was incubated on a shaker for 30 minutes at room […]
temperature. […]

[1] = test system: Wnt/β-catenin signaling (TCF/LEF Reporter HEK293 Cell Line); assay: Wnt signaling TCF/LEF reporter assay in HEK293 cells; format: cell-based, human; settings: for Wnt (HEK293) inhibition at 1 µM: 1 µM compound; for inhibition at 1 µM: HEK293, 1 µM compound
Protocol: The Wnt assay was performed using a procedure modified from the BPS Bioscience protocol. Details are given in the Supplementary Methods. […]
The Wnt Signaling Pathway TCF/LEF Reporter HEK293 Cell Line (BPS Bioscience, catalog […]
Reporter HEK293 cells were grown at 37 °C with 5% CO2 using Dulbecco's Modified Eagle's Medium (DMEM, Sigma), supplemented with 10% of fetal bovine serum (Lonza), 1% non-essential amino acid (Sigma), 1X of penicillin and streptomycin (Sigma), and 400 µg/ml of Geneticin (Roche). Wnt-3a and L cells (ATCC) were cultured in Dulbecco’s modified Eagle’s medium supplemented with 10% fetal bovine serum, penicillin and streptomycin at 37 °C in a 5%
CO2. Wnt3a and control conditioned medium preparation has been described previously1. The Wnt assay was performed using a procedure modified from the BPS Bioscience protocol. 30,000 HEK293 cells/well in 40 µl of serum-free DMEM were plated on 96-well plate (white wells, clear […]
bottom, PerkinElmer). 10 µl of 50 mM LiCl in serum-free DMEM with 5x concentration of DMSO or tankyrase inhibitors was added. After 16 hours of incubation, 25 µl of Wnt3a or control conditioned medium supplemented with DMSO or tankyrase inhibitors was added on cells and cells were incubated for additional 24 hours. After the second incubation, the 96-well plates were balanced in room temperature for 30 minutes. Wnt3a induced luciferase activity was determined using ONE-Glo Luciferase Assay System (Promega) according to manufacturer’s protocol. […]
Difference Fourier method deriving the starting phases from 3U9H. The refinement of the structures was done with REFMAC5.5,6 Final manual building, analysis and visualization of the structures were made with Coot7 and PyMOL (www.pymol.org). All chemical structures were drawn with Marvin (Marvin 5.7.0 2011, ChemAxon, http://www.chemaxon.com). The docking studies were performed using GOLD software.8

TNKS2 = TNKS2 (Homo sapiens, UniProt Q9H2K2); assay: NAD+ quantification activity assay, TNKS2; format: biochemical; settings: TNKS2 IC50, NAD+ 500 nM
Sequence of TNKS2 (Q9H2K2 959-1164): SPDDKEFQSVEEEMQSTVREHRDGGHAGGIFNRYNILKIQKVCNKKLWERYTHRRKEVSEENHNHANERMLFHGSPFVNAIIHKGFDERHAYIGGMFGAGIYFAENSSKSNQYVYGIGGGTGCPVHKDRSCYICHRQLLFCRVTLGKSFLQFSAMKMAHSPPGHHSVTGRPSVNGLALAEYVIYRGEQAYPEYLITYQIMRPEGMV
Protocol: The activity assay used to measure the potency of the compounds against TNKS2 is based on the quantification of NAD^+[38]. The reactions were carried out in 96-well plate (Greiner bio-one, U-shaped) and the conditions were the same as reported earlier (Table S5)[24].
The compounds were stored in 100% DMSO at −20 °C. All the compounds were diluted in the TNKS2 assay buffer (50 mM Bis-Tris Propane, 0.5 mM TCEP, 0.01% Triton-100x). Control reactions were used to exclude the effect of compound fluorescence and quenching from the calculations. […] The pIC50 values were calculated and fitted with nonlinear regression using 4-parameters with GraphPad Prism (version 5.0 for windows).
Protein (nM) NAD+ (nM) Incubation Buffer
Kinase [ATP] Substrate Incubation Reaction buffer

ARTD2/PARP2 = ARTD2/PARP2 (Homo sapiens, UniProt Q9UGN5); assay: ARTD profiling, ARTD2
Sequence of ARTD2/PARP2 (Q9UGN5 whole entry): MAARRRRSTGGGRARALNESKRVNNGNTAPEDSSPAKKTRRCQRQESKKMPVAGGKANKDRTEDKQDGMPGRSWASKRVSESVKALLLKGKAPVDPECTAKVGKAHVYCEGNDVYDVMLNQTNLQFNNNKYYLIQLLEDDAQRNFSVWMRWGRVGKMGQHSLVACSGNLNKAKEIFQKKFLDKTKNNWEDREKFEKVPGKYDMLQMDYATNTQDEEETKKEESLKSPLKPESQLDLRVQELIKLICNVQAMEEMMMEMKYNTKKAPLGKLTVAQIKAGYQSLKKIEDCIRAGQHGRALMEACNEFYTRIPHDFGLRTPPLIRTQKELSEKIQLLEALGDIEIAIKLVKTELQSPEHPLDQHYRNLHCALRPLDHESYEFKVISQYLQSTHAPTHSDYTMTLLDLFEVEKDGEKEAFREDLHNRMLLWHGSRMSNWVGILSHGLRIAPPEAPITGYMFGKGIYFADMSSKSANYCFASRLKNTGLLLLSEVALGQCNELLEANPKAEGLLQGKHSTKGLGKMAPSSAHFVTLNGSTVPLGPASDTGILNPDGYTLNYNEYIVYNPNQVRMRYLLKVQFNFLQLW

[2] = Homo sapiens, TCF/LEF reporter HEK293

T1 sequence (P68400 whole entry): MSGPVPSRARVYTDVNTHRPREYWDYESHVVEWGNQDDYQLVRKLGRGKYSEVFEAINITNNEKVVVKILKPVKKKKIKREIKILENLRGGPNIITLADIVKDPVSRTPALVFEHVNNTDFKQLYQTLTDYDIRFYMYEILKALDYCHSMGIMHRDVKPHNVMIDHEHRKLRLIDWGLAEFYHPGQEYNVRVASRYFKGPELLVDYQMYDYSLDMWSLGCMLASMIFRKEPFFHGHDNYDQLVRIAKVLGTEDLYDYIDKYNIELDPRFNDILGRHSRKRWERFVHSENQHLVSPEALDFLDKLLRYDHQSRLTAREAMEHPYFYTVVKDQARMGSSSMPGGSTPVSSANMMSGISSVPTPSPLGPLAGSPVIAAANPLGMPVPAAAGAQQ

Row | inhibition at 1 µM (human CK2α-1) [%] | inhibition at 10 µM (human CK2α-1) [%] | IC50 (TNKS2) [nM] | IC50 (ARTD2/PARP2) [nM] | SMILES | Wnt (HEK293) inhibition at 1 µM ([1]; TCF/LEF reporter HEK293) [%] | inhibition at 1 µM [1, 2] [%] | IC50 [1, 2] [nM] | Effect on Wnt/β-catenin signaling at lower concentrations ([1]; concentrations below 1 µM)
1 | 1 ± 1 | 1 ± 1 | 15 | 8600 | O=c1[nH]c(-c2ccc(N3CCCCC3)cc2)nc2ccccc12 [Compound 30] | > 50 | 61 | 570 | 
2 | 2 ± 1 | 2 ± 1 | 10 | 24000 | CCN(CC)c1ccc(-c2nc3ccccc3c(=O)[nH]2)cc1 [Compound 32] | 63 | > 50 |  | activated Wnt/β-catening signaling
